Data: patent US20040176431A1, “Antiproliferative 2-(sulfo-phenyl)-aminothiazole derivatives and pharmaceutical compositions, and methods for their use” (Pfizer, Inc., priority 2003, published 2004)

Key:
[1] = target: T1, CDK2/cyclin A (Homo sapiens, UniProt P24941); experiment: Inhibition of CDK2/Cyclin A retinoblastoma kinase activity; assay type: biochemical; conditions: apparent Ki, Rb fragment substrate
T1 construct: made in house; host or cells: CDK2: insect cells (baculovirus); cyclin A: E. coli, then limited proteolysis
Method: (§1) Cyclin-dependent kinase activity was measured by quantifying the enzyme-catalyzed, time-dependent incorporation of radioactive phosphate from [^32P]ATP or [^33P]ATP into a protein substrate. Unless noted otherwise, assays were performed in 96-well plates in a total volume of 50 μL, in the presence of 10 mM HEPES (N-[2-hydroxyethyl]piperazine-N′-[2-ethanesulfonic acid]) (pH 7.4), 10 mM MgCl2, 25 μM adenosine triphosphate (ATP), 1 mg/mL ovalbumin, 5 μg/mL leupeptin, 1 mM dithiothreitol, 10 mM β-glycerophosphate, 0.1 mM sodium vanadate, 1 mM sodium fluoride, 2.5 mM ethylene glycol-bis(β-aminoethyl ether)-N,N,N′N′-tetraacetic acid (EGTA), 2% (v/v) dimethylsulfoxide, and 0.03-0.4 μCi [^32/33P]ATP per reaction. Reactions were initiated with enzyme, incubated at 30° C., and terminated after 20 minutes by the addition of ethylenediaminetetraacetic acid (EDTA) to 250 mM. The phosphorylated substrate was then captured on a nitrocellulose or phosphocellulose membrane using a 96-well filtration manifold, and unincorporated radioactivity was removed by repeated washing with 0.85% phosphoric acid. Radioactivity was quantified by exposing the dried membranes to a phosphorimager.
(§2) Inhibition was measured relative to control wells that contained all reaction components including 2% (v/v) DMSO but no compound, after subtraction of background radioactivity measured in the absence of enzyme. Apparent Ki values of discrete compounds were measured by assaying enzyme activity in the presence of different inhibitor compound concentrations and subtracting the background radioactivity measured in the absence of enzyme. The kinetic parameters (kcat, Km for ATP) were measured for each enzyme under the usual assay conditions by determining the dependence of initial rates on ATP concentration. Inhibition data were fit to an equation for competitive inhibition using Kaleidagraph (Synergy Software), or were fit to an equation for competitive tight-binding inhibition using the software KineTic (BioKin, Ltd.).
CDK2 was purified using published methodology (Rosenblatt et al., J. Mol. Biol., 230, 1317-1319 (1993)) from insect cells that had been infected with a baculovirus expression vector. Cyclin A was purified from E. coli cells expressing full-length recombinant cyclin A, and a truncated cyclin A construct was generated by limited proteolysis and purified as described previously (Jeffrey et al., Nature, 376, 313-320 (1995)). A complex of CDK2 and proteolyzed cyclin A was prepared and purified by gel filtration. The substrate for this assay was the same Rb substrate fragment used for the CDK4 assays, and the methodology of the CDK2/delta cyclin A and the CDK4/delta cyclin D3 assays was essentially the same, except that CDK2 was present at 10 nM or 19 nM. The duration of the assay was 60 or 75 minutes, during which the time-dependence of product formation was linear and initial rate conditions were met.

[2] = test system: HCT-116 cells; experiment: Inhibition of cell growth (MTT tetrazolium salt assay); assay type: cell-based; conditions: Homo sapiens; for IC50: read-out: HCT116 IC50; for IC90: read-out: HCT116 IC90
Method: Inhibition of cell growth was measured using the tetrazolium salt assay, which is based on the ability of viable cells to reduce 3-(4,5-dimethylthiazol-2-yl)-2,5-[2H]-diphenyltetrazolium bromide (MTT) to formazan (Mosmann, J. Immunol. Meth., 65, 55-63 (1983)). The water-insoluble purple formazan product was then detected spectrophotometrically. HCT-116 cells were grown in 96-well plates. Cells were plated in the appropriate medium at a volume of 135 μl/well in either McCoy's 5A Medium. Plates were incubated for four hours before addition of inhibitor compounds. Different concentrations of inhibitor compounds were added in 0.5% (v/v) dimethylsulfoxide (15 μL/well), and cells were incubated at 37° C. (5% CO2) for four to six days (depending on cell type). At the end of the incubation, MTT was added to a final concentration of 0.2 mg/mL, and cells were incubated for 4 hours more at 37° C. After centrifugation of the plates and removal of medium, the absorbance of the formazan (solubilized in dimethylsulfoxide) was measured at 540 nm. […] All results were compared to control cells treated only with 0.5% (v/v) dimethylsulfoxide.

[3] = target: T2, CDK4/cyclin D3 (Homo sapiens, UniProt P11802); experiment: Inhibition of CDK4/Cyclin D retinoblastoma kinase activity; assay type: biochemical; conditions: apparent Ki, Rb fragment substrate
T2 construct: made in house; host or cells: insect cells (baculovirus co-infection)
T2 sequence (P11802 whole entry, the tested form may be a part): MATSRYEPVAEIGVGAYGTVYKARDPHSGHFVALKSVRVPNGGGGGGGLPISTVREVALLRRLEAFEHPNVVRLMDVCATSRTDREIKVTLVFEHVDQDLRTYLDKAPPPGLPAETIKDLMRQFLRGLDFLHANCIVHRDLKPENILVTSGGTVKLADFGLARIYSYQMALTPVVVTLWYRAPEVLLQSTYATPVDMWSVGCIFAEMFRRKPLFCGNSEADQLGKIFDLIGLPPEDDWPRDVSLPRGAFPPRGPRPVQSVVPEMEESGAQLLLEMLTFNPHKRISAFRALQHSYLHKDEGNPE
T2 sequence (P30281 1-264 partner limits assumed): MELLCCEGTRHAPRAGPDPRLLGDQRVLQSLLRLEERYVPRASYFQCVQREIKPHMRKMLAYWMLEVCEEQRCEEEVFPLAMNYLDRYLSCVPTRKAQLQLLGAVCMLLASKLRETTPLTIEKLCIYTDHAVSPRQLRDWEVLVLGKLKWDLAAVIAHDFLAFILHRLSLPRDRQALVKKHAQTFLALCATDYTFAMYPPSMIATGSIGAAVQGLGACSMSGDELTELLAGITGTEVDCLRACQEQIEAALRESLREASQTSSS
Method in brief: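 Apparent Ki derived by fitting activity at varied inhibitor concentrations to competitive (or competitive tight-binding) inhibition equations, background without enzyme subtracted. Radiometric filter-binding read-out of Rb(386-928) phosphorylation by 5 nM CDK4/cyclin D3(1-264); 25 μM ATP, pH 7.4, 2% DMSO, 30° C., 20 min, extended to 60 min for tight binders.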

[4] = target: T3, CDK1 (cdc2)/cyclin B (Homo sapiens, UniProt P06493); experiment: Inhibition of CDK1(cdc2)/Cyclin B histone H1 kinase activity; assay type: biochemical; conditions: apparent Ki, histone H1 substrate
T3 construct: purchased New England Biolabs (Beverly Mass.)
T3 sequence (P06493 whole entry): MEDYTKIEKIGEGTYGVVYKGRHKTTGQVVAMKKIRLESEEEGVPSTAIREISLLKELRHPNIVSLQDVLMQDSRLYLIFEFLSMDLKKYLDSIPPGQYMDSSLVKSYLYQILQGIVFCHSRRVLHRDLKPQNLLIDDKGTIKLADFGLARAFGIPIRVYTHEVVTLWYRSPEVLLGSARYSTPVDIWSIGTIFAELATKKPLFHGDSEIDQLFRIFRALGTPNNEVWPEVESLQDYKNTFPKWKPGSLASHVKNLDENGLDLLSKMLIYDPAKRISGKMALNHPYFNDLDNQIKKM
T3 sequence (P14635 whole entry partner): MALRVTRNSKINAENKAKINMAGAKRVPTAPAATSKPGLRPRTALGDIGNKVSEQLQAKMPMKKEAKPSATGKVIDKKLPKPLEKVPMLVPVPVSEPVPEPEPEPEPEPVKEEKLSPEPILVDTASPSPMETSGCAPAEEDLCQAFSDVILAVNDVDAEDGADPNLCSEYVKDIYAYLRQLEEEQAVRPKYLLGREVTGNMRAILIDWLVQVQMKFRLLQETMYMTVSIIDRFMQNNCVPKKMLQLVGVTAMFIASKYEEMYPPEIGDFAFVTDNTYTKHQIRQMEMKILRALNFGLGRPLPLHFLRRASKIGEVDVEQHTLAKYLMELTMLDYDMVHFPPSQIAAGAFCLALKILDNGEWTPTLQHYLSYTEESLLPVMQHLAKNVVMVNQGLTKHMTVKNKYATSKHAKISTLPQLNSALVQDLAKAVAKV
Method: as §1
as §2, with “Inhibition data were fit to an equation for competitive inhibition using Kaleidagraph (Synergy Software), or were fit to an equation for competitive tight-binding inhibition using the software KineTic (BioKin, Ltd.).” left out
The complex of human CDK1 (cdc2) and cyclin B was purchased from New England Biolabs (Beverly Mass.). […] Phosphorylated histone substrate was captured by microfiltration on a phosphocellulose P81 membrane and quantified using a phosphorimager as described above.

C[S+]([O-])c1ccc(Nc2nc(N)c(C(=O)c3c(Cl)cccc3Cl)s2)cc1 (stereo not shown) [Z(4), 4-Amino-5-(2,6-dichlorobenzoyl)-2-(4-methanesulfinyl-phenylamino)-thiazole]
Ki [1]: 303 nM
IC50 [2]: 4000 nM
IC90 [2]: 12000 nM
Ki [3]: 38 nM
Ki [4]: 120 nM

Cc1ccc(C(C)NS(=O)(=O)c2ccc(Nc3nc(N)c(C(=O)c4c(F)cccc4F)s3)cc2)o1 (stereo not shown) [A(30), 4-[4-Amino-5-(2,6-difluoro-benzoyl)-thiazol-2-ylamino]-N-[1-(5-methyl-furan-2-yl)-ethyl]-benzenesulfonamide]
Ki [1]: < 5 nM
IC50 [2]: 310 nM
IC90 [2]: 640 nM
Ki [3]: 9 nM

CN(C)CCCNS(=O)(=O)c1ccc(Nc2nc(N)c(C(=O)c3c(F)cccc3F)s2)cc1 [Example A(21), 4-[4-Amino-5-(2,6-difluoro-benzoyl)-thiazol-2-ylamino]-N-(3-dimethylamino-propyl)-benzenesulfonamide]
Ki [1]: 14 nM
IC50 [2]: 1800 nM
IC90 [2]: 4400 nM
Ki [3]: 6.8 nM

NC(=O)CSc1ccc(Nc2nc(N)c(C(=O)c3c(Cl)cccc3Cl)s2)cc1 [Y(1), 2-{4-[4-Amino-5-(2,6-dichloro-benzoyl)-thiazol-2-ylamino]-phenylthio}-acetamide]
Ki [1]: 66 nM
IC50 [2]: 2300 nM
IC90 [2]: 6000 nM
Ki [3]: 11 nM

Nc1nc(Nc2ccc(S(=O)(=O)NCc3cccs3)cc2)sc1C(=O)c1c(F)cccc1F [A(27), 4-[4-Amino-5-(2,6-difluoro-benzoyl)-thiazol-2-ylamino]-N-thiophen-2-ylmethyl-benzenesulfonamide]
Ki [1]: 4.6 nM
IC50 [2]: 400 nM
IC90 [2]: 1000 nM
Ki [3]: 57 nM

Nc1nc(Nc2ccc(S(=O)(=O)NCCCCO)cc2)sc1C(=O)c1c(F)cccc1F [Example A(5), 4-[4-Amino-5-(2,6-difluoro-benzoyl)-thiazol-2-ylamino]-N-(4-hydroxy-butyl)-benzenesulfonamide]
Ki [1]: 5.7 nM
IC50 [2]: 1300 nM
IC90 [2]: 3000 nM
Ki [3]: 24 nM

Nc1nc(Nc2ccc(S(=O)(=O)NCc3cc4ccccc4o3)cc2)sc1C(=O)c1c(F)cccc1F [A(34), 4-[4-Amino-5-(2,6-difluoro-benzoyl)-thiazol-2-ylamino]-N-benzofuran-2-ylmethyl-benzenesulfonamide]
Ki [1]: < 10 nM
IC50 [2]: 780 nM
IC90 [2]: 1800 nM
Ki [3]: 5.1 nM

Cc1ccsc1C(=O)c1sc(Nc2ccc(S(N)(=O)=O)cc2)nc1N [C(48)*, reference compound]
Ki [1]: 11 nM
IC50 [2]: 340 nM
Ki [3]: 19.1 nM

Nc1nc(Nc2ccc(S(=O)(=O)NCCc3ccc(F)cc3)cc2)sc1C(=O)c1c(F)cccc1F [Example A(20), 4-[4-Amino-5-(2,6-difluoro-benzoyl)-thiazol-2-ylamino]-N-[2-(4-fluoro-phenyl)-ethyl]-benzenesulfonamide]
Ki [1]: < 5 nM
IC50 [2]: 900 nM
IC90 [2]: 2600 nM
Ki [3]: 14 nM

NC(=O)C[S+]([O-])c1ccc(Nc2nc(N)c(C(=O)c3c(Cl)cccc3Cl)s2)cc1 (stereo not shown) [Z(2), 2-(4-{4-Amino-5-(2,6-dichlorobenzoyl)-thiazol-2-ylamino}-benzenesulfinyl)-acetamide]
Ki [1]: 62 nM
IC50 [2]: 18000 nM
IC90 [2]: > 25000 nM
Ki [3]: 15 nM

CC(CCCC(C)(C)O)NS(=O)(=O)c1ccc(Nc2nc(N)c(C(=O)c3c(F)cccc3F)s2)cc1 (stereo not shown) [Example A(12), 4-[4-Amino-5-(2,6-difluoro-benzoyl)-thiazol-2-ylamino]-N-(5-hydroxy-1,5-dimethyl-hexyl)-benzenesulfonamide]
Ki [1]: < 5 nM
IC50 [2]: 150 nM
IC90 [2]: 630 nM
Ki [3]: 4.2 nM

CCN(CC)CCCNS(=O)(=O)c1ccc(Nc2nc(N)c(C(=O)c3c(F)cccc3F)s2)cc1 [Example A(13), 4-[4-Amino-5-(2,6-difluoro-benzoyl)-thiazol-2-ylamino]-N-(3-diethylamino-propyl)-benzenesulfonamide]
Ki [1]: 10 nM
IC50 [2]: 730 nM
IC90 [2]: 3000 nM
Ki [3]: 8.9 nM

Nc1nc(Nc2ccc(SCCO)cc2)sc1C(=O)c1c(Cl)cccc1Cl [Y(2), 4-Amino-5-(2,6-dichlorobenzoyl)-2-[4-(2-hydroxy-ethylthio)-phenylamino]-thiazole]
Ki [1]: 140 nM
IC50 [2]: 3900 nM
IC90 [2]: 13000 nM
Ki [3]: 7.6 nM

CN(C)CCNS(=O)(=O)c1ccc(Nc2nc(N)c(C(=O)c3c(F)cccc3F)s2)cc1 [Example A(2), 4-[4-Amino-5-(2,6-difluoro-benzoyl)-thiazol-2-ylamino]-N-(2-dimethylamino-ethyl)-benzenesulfonamide]
Ki [1]: 4.5 nM
IC50 [2]: 360 nM
IC90 [2]: 1100 nM
Ki [3]: 7.5 nM

CCN(CC)CCCCNS(=O)(=O)c1ccc(Nc2nc(N)c(C(=O)c3c(F)cccc3F)s2)cc1 [A(26), 4-[4-Amino-5-(2,6-difluoro-benzoyl)-thiazol-2-ylamino]-N-(4-diethylamino-butyl)-benzenesulfonamide]
Ki [1]: 2.9 nM
IC50 [2]: 850 nM
IC90 [2]: 3300 nM
Ki [3]: 3 nM

Nc1nc(Nc2ccc(S(=O)(=O)NCCCN3CCCCC3)cc2)sc1C(=O)c1c(F)cccc1F [Example A(14), 4-[4-Amino-5-(2,6-difluoro-benzoyl)-thiazol-2-ylamino]-N-(3-piperidin-1-yl-propyl)-benzenesulfonamide]
Ki [1]: 6 nM
IC50 [2]: 420 nM
IC90 [2]: 1700 nM
Ki [3]: 8.1 nM

Nc1nc(Nc2ccc(S(=O)(=O)NCCCN3CCCC3)cc2)sc1C(=O)c1c(F)cccc1F [Example A(8), 4-[4-Amino-5-(2,6-difluoro-benzoyl)-thiazol-2-ylamino]-N-(3-pyrrolidin-1-yl-propyl)-benzenesulfonamide]
Ki [1]: 11 nM
IC50 [2]: 2400 nM
IC90 [2]: 5000 nM
Ki [3]: 9.9 nM

Cc1cc(F)c(C(=O)c2sc(Nc3ccc(S(=O)(=O)NCCOC(C)C)cc3)nc2N)c(F)c1 [Example CC(1), 4-[4-Amino-5-(2,6-difluoro-4-methyl-benzoyl)-thiazol-2-ylamino]-N-(2-isopropoxy-ethyl)-benzenesulfonamide]
Ki [1]: 0.74 nM
IC50 [2]: 280 nM
IC90 [2]: 480 nM
Ki [3]: 9.7 nM

CC(C)OCCNS(=O)(=O)c1ccc(Nc2nc(N)c(C(=O)c3c(F)cccc3F)s2)cc1 [Example A(17), 4-[4-Amino-5-(2,6-difluoro-benzoyl)-thiazol-2-ylamino]-N-(2-isopropoxy-ethyl)-benzenesulfonamide]
Ki [1]: 2 nM
IC50 [2]: 140 nM
IC90 [2]: 450 nM
Ki [3]: 14 nM
